Measured values published in patent US20200276181A1, “THIENOISOQUINOLINES AND THEIR DERIVATIVES FOR TARGETING TUBULIN, CH-TOG, AURORA A KINASE, TPX2, CDK5RAP2 AND/OR ASPM” (VALORBEC, SEC, priority 2017, published 2020).

Tests used:
Type in all cases: cell-based
[1] = tested on: HeLa, A549 and HCT116 cancer cells compared to HFF-1 non-cancer cells; assay: Selective toxicity, high-throughput automated analysis; conditions: A549, HCT116 vs HFF-1
Description: (§1) FIG. 1A) is a line graph showing changes in the percentage of viable HFF-1, HeLa, A549 and HCT 116 cells after treatment with a range of C75 concentrations for 3 population doubling times (N=3). […] There were more rounded mitotic cells after C75 treatment in comparison to the control. FIG. 1C) is a line graph showing the percentage of HeLa and HFF1 cells in mitosis after treatment with various concentrations of C75 for 8 hours. The bars indicate standard deviation. FIG. 1D) is a series of images showing cells that were fixed and co-stained for tubulin (microtubules) and DAPI (DNA). Treatment of HeLa cells with 300 nM C75 caused the mitotic spindles to be disorganized, while they were not affected in HFF1 cells. […] The scale bar for the cells is 10 μm. […] FIG. 1F) is a cartoon schematic showing the key features of a metaphase cell.
(§2) The images in FIG. 1B) show fields of view of HeLa cells treated with (dimethyl sulfoxide) DMSO or 500 nM of C75. […] Higher concentrations of C75 caused spindle phenotypes in HFF1 cells, but they were quite different in comparison to HeLa cells (FIG. 1D).

[2] = tested on: HeLa cells in comparison to HFF1 cells; assay: Percentage of cells in mitosis, 8 hours; conditions: nanomolar range
Description: as §1, §2

HCT116 cells = assay: Viability IC50 of C75 in combination with subthreshold colchicine; conditions: + 3 nM colchicine
Text: Bars show standard deviation. […] The scale bar for all cells is 10 μm. In FIG. 4F), bar graphs show changes in the proportion of HCT 116 cells with the different spindle phenotypes as in FIG. 4D (n=2368; N=3). […] Bars indicate standard deviation.

HFF1 (non-cancer) cells = assay: Percentage of mitotic cells, nocodazole +/- C75; conditions: 200 nM C75 + 33 or 66 nM nocodazole
Description: FIG. 3A) is a line graph showing cytotoxicity of HeLa cells after treatment with varying concentrations of C75+/−a subthreshold dose of paclitaxel (Taxol™; 3 nM). The IC50 is shown by the dotted line. Bars show standard deviation. […] The bars indicate standard deviation. FIG. 3C) is a series of bar graphs showing the proportion of HCT 116 cells with bipolar aligned (grey), bipolar misaligned (dark grey), multipolar/fragmented (light grey, top portion of each bar) or monopolar (black) spindles 7 hours after treatment with control (DMSO), varying concentrations of paclitaxel or C75, or both as indicated (n=691; N=3). The bars show standard deviation. The combination treatments were compared to paclitaxel and C75 on their own by calculating ratios varying from the predicted ratio, and found to synergize at 100 and 200 nM. FIG. 3D) is bar graph showing the average distance between centrosome fragments in HCT116 cells after treatments as shown. While centrosome fragments moved closer together with increased concentrations of paclitaxel, they moved further apart with increased concentrations of C75 (n=105; N=3). […] FIG. 3F) is a line graph showing the percentage of mitotic HeLa or HFF1 cells treated with a range of nocodazole concentrations+/−C75 as indicated. The bars indicate standard deviation. […]

COc1ccc(S(=O)(=O)N2Cc3ccccc3-c3sc(Br)cc32)cc1 [Compound C75]
toxicity in cancer cells compared to HFF-1 non-cancer cells [1]: selectively cause toxicity | mitotic arrest in HeLa vs HFF1 [2]: selectively causes mitotic arrest | lowering of the IC50 of C75 by subthreshold colchicine (HCT116 cells): ~2 fold | change in proportion of mitotic cells (HFF1 (non-cancer) cells): no change
